Measured values: patent US8916702B2 (priority 2012, dated 2014)
Where two headings read alike, the source gives them in different places.

Test system: HCV pseudoparticles (genotype 1a HCV E1 and E2 envelope, H77C isolate)
Experiment: microbe, parasite or virus in culture
Type: cell-based
Conditions: Hepatitis C virus
[1] = Huh-7, 48 h, read-out: Activity (EC50 class), HCV pseudoparticle infection of Huh7 cells, luciferase 2 days after infection, EC50 expressed as class A/B
[2] = Huh-7, read-out: Activity (EC50 class), HCV pseudoparticles (genotype 1a, H77C) in Huh7 cells, EC50 expressed as class A/B
[3] = Huh-7, 48 h, read-out: Activity (EC50 class), HCV pseudoparticles, Huh7 cells, luciferase 2 days after infection, average of duplicates
[4] = Huh-7, 48 h, HCV pseudoparticles (genotype 1a, H77C) in Huh7 cells, average of duplicate, luciferase 2 days after infection

Compound	EC50 [1] [nM]	EC50 [2] [nM]	further results
COC(=O)[C@H](CNC(=O)C(=O)N(C)C)NC(=O)c1ccc(Nc2nc(NC3(c4ccc(Cl)cc4)CC3)nc(OCC(F)(F)F)n2)cc1 [Compound 1004, (S)-methyl 2-(4-(4-(1-(4-chlorophenyl)cyclopropylamino)-6-(2,2,2-trifluoroethoxy)-1,3,5-triazin-2-ylamino)benzamido)-3-(2-(dimethylamino)-2-oxoacetamido)propanoate]	0.01 to 10		EC50 (Huh-7, 48 h, HCV pseudoparticle infection of Huh7 cells, luciferase 2 days after infection, average of duplicates): 4.74 nM
O=C(NCCC(NC(=O)c1ccc(Nc2nc(NC3(c4ccc(Cl)cc4)CC3)nc(OCC(F)(F)F)n2)cc1)C(=O)O)C(=O)Nc1ccc(Cn2cncn2)cc1 (centres unmarked) [Compound 3520]		0.01 to 10	
Cc1ccc(NC(=O)C(=O)NCC(C)(C)CNC(=O)c2ccc(Nc3nc(NC4(c5ccc(Cl)cc5)CC4)nc(OCc4cccc(F)c4)n3)cc2)cc1 [Compound 3846]			EC50 [3]: 0.01 to 10 nM
COC(=O)[C@H](CNC(=O)C(=O)Nc1ccc(Oc2ccccc2)cc1)NC(=O)c1ccc(Nc2nc(NC3(c4ccc(Cl)cc4)CC3)nc(OCC(F)(F)F)n2)cc1 [Compound 3082]		0.01 to 10	
CCc1ccc(NC(=O)C(=O)NCC(C)(C)CNC(=O)c2ccc(Nc3nc(NC4(c5ccc(Cl)cc5)CC4)nc(OCC(F)(F)F)n3)cc2)cc1 [Compound 1583]	0.01 to 10		
COC(=O)[C@H](CCNC(=O)C(=O)NCc1ccc(F)c(F)c1)NC(=O)c1ccc(Nc2nc(NC3(c4ccc(Cl)cc4)CC3)nc(OCC(F)(F)F)n2)cc1 [Compound 1159]	0.01 to 10		
COC(=O)[C@H](CCNC(=O)C(=O)NCC1CCCOC1)NC(=O)c1ccc(Nc2nc(NC3(c4ccc(Cl)cc4)CC3)nc(OCC(F)(F)F)n2)cc1 (some centres unmarked) [Compound 1198]	0.01 to 10		
Cc1cc(C)n(-c2ccc(NC(=O)C(=O)NCC[C@H](NC(=O)c3ccc(Nc4nc(NC5(c6ccc(Cl)cc6)CC5)nc(OCC(F)(F)F)n4)cc3)C(=O)O)cc2)n1 [Compound 3238]		0.01 to 10	
COC(=O)[C@H](CNC(=O)C(=O)Nc1cccc(CN2CCCC2)c1)NC(=O)c1ccc(Nc2nc(NC3(c4ccc(Cl)cc4)CC3)nc(OCC(F)(F)F)n2)cc1 [Compound 3723]			EC50 (Huh-7, 48 h, HCV pseudoparticles, Huh7 cells, luciferase 2 days after infection, average of duplicates): 1.34 nM; EC50 [3]: 0.01 to 10 nM
CC(C)(CNC(=O)C(=O)Nc1ccc(/C=C/c2ccccc2)cc1)CNC(=O)c1ccc(Nc2nc(NC3(c4ccc(Cl)cc4)CC3)nc(OCC(F)(F)F)n2)cc1 [Compound 3143]		0.01 to 10	
O=C(CNC(=O)C(=O)Nc1cccc(F)c1)CNC(=O)c1ccc(Nc2nc(NC3(c4ccc(Cl)cc4)CC3)nc(OCC(F)(F)F)n2)cc1 [Compound 3363]		0.01 to 10	
O=C(NCC[C@H](NC(=O)c1ccc(Nc2nc(NC3(c4ccc(Cl)cc4)CC3)nc(OCC(F)(F)F)n2)cc1)C(=O)O)C(=O)Nc1ccc(N2CCN(Cc3ccccc3)CC2)cc1 [Compound 3232]		0.01 to 10	
CC(C)(CNC(=O)C(=O)Nc1ccon1)CNC(=O)c1ccc(Nc2nc(NC3(c4ccc(Cl)cc4)CC3)nc(OCC(F)(F)F)n2)cc1 [Compound 3040]		0.01 to 10	
COC(=O)[C@H](CCNC(=O)C(=O)Nc1cccc(C#CC(C)(C)Cl)c1)NC(=O)c1ccc(Nc2nc(NC3(c4ccc(Cl)cc4)CC3)nc(OCC(F)(F)F)n2)cc1 [Compound 3600]			EC50 [3]: 0.01 to 10 nM
COC(=O)[C@H](CNC(=O)C(=O)Nc1cccc(-c2nc(C)cs2)c1)NC(=O)c1ccc(Nc2nc(NC3(c4ccc(Cl)cc4)CC3)nc(OCC(F)(F)F)n2)cc1 [Compound 3725]			EC50 [3]: 0.01 to 10 nM
O=C(NC[C@H](NC(=O)c1ccc(Nc2nc(NC3(c4ccc(Cl)cc4)CC3)nc(OCC(F)(F)F)n2)cc1)C(=O)O)C(=O)NC1CCCCCCC1 [Compound 1096]	0.01 to 10		
COC(=O)[C@H](CCNC(=O)C(=O)Nc1ccc(C2CCCCC2)cc1)NC(=O)c1ccc(Nc2nc(NC3(c4ccc(Cl)cc4)CC3)nc(OCC(F)(F)F)n2)cc1 [Compound 3111]		0.01 to 10	
NC(=O)c1cccc(NC(=O)C(=O)NCC[C@H](NC(=O)c2ccc(Nc3nc(NC4(c5ccc(Cl)cc5)CC4)nc(OCC(F)(F)F)n3)cc2)C(=O)O)c1 [Compound 3615]			EC50 [3]: 0.01 to 10 nM
CC(C)(C)OC(=O)NC1CCCC(NC(=O)C(=O)NCC[C@H](NC(=O)c2ccc(Nc3nc(NC4(c5ccc(Cl)cc5)CC4)nc(OCC(F)(F)F)n3)cc2)C(=O)O)C1 (some centres unmarked) [Compound 1111]	0.01 to 10		
Cn1cnnc1-c1cccc(NC(=O)C(=O)NC[C@H](NC(=O)c2ccc(Nc3nc(NC4(c5ccc(Cl)cc5)CC4)nc(OCC(F)(F)F)n3)cc2)C(=O)O)c1 [Compound 3774]			EC50 [3]: 0.01 to 10 nM
COC(=O)[C@H](CCNC(=O)C(=O)Nc1ccc(Cc2ccncc2)cc1)NC(=O)c1ccc(Nc2nc(NC3(c4ccc(Cl)cc4)CC3)nc(OCC(F)(F)F)n2)cc1 [Compound 3123]		0.01 to 10	
COC(=O)[C@H](CCNC(=O)C(=O)NC1CCCCCCC1)NC(=O)c1ccc(Nc2nc(NC3(c4ccc(Cl)cc4)CC3)nc(OCC(F)(F)F)n2)cc1 [Compound 1104]	0.01 to 10		
COc1cccc2sc(NC(=O)C(=O)NCC(C)(C)CNC(=O)c3ccc(Nc4nc(NC5(c6ccc(Cl)cc6)CC5)nc(OCC(F)(F)F)n4)cc3)nc12 [Compound 3813]			EC50 [3]: 0.01 to 10 nM

Compound	EC50 [1] [nM]	EC50 [2] [nM]	further results
COC(=O)[C@H](CCNC(=O)C(=O)NC1CCC(F)(F)CC1)NC(=O)c1ccc(Nc2nc(NC3(c4ccc(Cl)cc4)CC3)nc(OCC(F)(F)F)n2)cc1 [Compound 1099]	0.01 to 10		
COc1ccc2nc(NC(=O)C(=O)NCC(C)(C)CNC(=O)c3ccc(Nc4nc(NC5(c6ccc(Cl)cc6)CC5)nc(OCC(F)(F)F)n4)cc3)sc2c1 [Compound 3816]			EC50 [3]: 0.01 to 10 nM
O=C(NCCc1ccccc1)C(=O)NC[C@H](NC(=O)c1ccc(Nc2nc(NC3(c4ccc(Cl)cc4)CC3)nc(OCC(F)(F)F)n2)cc1)C(=O)O [Compound 1396]	0.01 to 10		
O=C(NCC1CCc2ccccc21)C(=O)NC[C@H](NC(=O)c1ccc(Nc2nc(NC3(c4ccc(Cl)cc4)CC3)nc(OCC(F)(F)F)n2)cc1)C(=O)O (some centres unmarked) [Compound 1414]	0.01 to 10		
C=Cc1ccc(NC(=O)C(=O)NCC(C)(C)CNC(=O)c2ccc(Nc3nc(NC4(c5ccc(Cl)cc5)CC4)nc(OCC(F)(F)F)n3)cc2F)cc1 [Compound 3515]		0.01 to 10	EC50 [4]: 0.017 nM
COc1cc(NC(=O)C(=O)NCC(C)(C)CNC(=O)c2ccc(Nc3nc(NC4(c5ccc(Cl)cc5)CC4)nc(OCC(F)(F)F)n3)cc2)ccc1F [Compound 3069]		0.01 to 10	
CC(C)(Cc1ccc(F)cc1)NC(=O)C(=O)NCC(NC(=O)c1ccc(Nc2nc(NC3(c4ccc(Cl)cc4)CC3)nc(OCC(F)(F)F)n2)cc1)C(=O)O (centres unmarked) [Compound 1408]	0.01 to 10		
O=C(NCC[C@H](NC(=O)c1ccc(Nc2nc(NC3(c4ccc(Cl)cc4)CC3)nc(OCC(F)(F)F)n2)cc1)C(=O)O)C(=O)NCC1(Cn2ccnc2)CC1 [Compound 1429]	0.01 to 10		
O=C(NC[C@H](NC(=O)c1ccc(Nc2nc(NC3(c4ccc(Cl)cc4)CC3)nc(OCC(F)(F)F)n2)cc1)C(=O)O)C(=O)Nc1ccc(Cn2ccnc2)cc1 [Compound 3285]		0.01 to 10	
O=C(NC[C@H](NC(=O)c1ccc(Nc2nc(NC3(c4ccc(Cl)cc4)CC3)nc(OCC(F)(F)F)n2)cc1)C(=O)O)C(=O)Nc1ccc(-c2c[nH]c(N3CCOCC3)n2)cc1 [Compound 3284]		0.01 to 10	
NC(=O)C(=O)N1CCCC(CNC(=O)c2ccc(Nc3nc(NC4(c5ccc(Cl)cc5)CC4)nc(OCC(F)(F)F)n3)cc2)C1 (centres unmarked) [Compound 3480]		0.01 to 10	
C#Cc1ccc(NC(=O)C(=O)NC[C@H](NC(=O)c2ccc(Nc3nc(NC4(c5ccc(Cl)cc5)CC4)nc(OCC(F)(F)F)n3)cc2)C(=O)OC)cc1 [Compound 3100]		0.01 to 10	EC50 [4]: 0.27 nM
CC(C)(CNC(=O)C(=O)Nc1nc2ccc(F)cc2s1)CNC(=O)c1ccc(Nc2nc(NC3(c4ccc(Cl)cc4)CC3)nc(OCC(F)(F)F)n2)cc1 [Compound 3804]			EC50 [3]: 0.01 to 10 nM
CC(C)(CNC(=O)C(=O)Nc1ccncc1)CNC(=O)c1ccc(Nc2nc(NC3(c4ccc(Cl)cc4)CC3)nc(OCC(F)(F)F)n2)cc1 [Compound 3241]		0.01 to 10	
COC(=O)[C@H](CNC(=O)C(=O)Nc1ccc(Cc2ccncc2)cc1)NC(=O)c1ccc(Nc2nc(NC3(c4ccc(Cl)cc4)CC3)nc(OCC(F)(F)F)n2)cc1 [Compound 3094]		0.01 to 10	
CCC(C)CNC(=O)C(=O)NC[C@@H](NC(=O)c1ccc(Nc2nc(NC3(c4ccc(Cl)cc4)CC3)nc(OCC(F)(F)F)n2)cc1)C(=O)O (some centres unmarked) [Compound 1044]	0.01 to 10		
CC(C)(CNC(=O)C(=O)Nc1ccc(-c2cccc(F)c2)cc1)CNC(=O)c1ccc(Nc2nc(NC3(c4ccc(Cl)cc4)CC3)nc(OCC(F)(F)F)n2)cc1 [Compound 3797]			EC50 [3]: 0.01 to 10 nM
COc1cccc(-c2ccc(NC(=O)C(=O)NCC(C)(C)CNC(=O)c3ccc(Nc4nc(NC5(c6ccc(Cl)cc6)CC5)nc(OCC(F)(F)F)n4)cc3)cc2)c1 [Compound 1581]	0.01 to 10		
CC(C)(CNC(=O)C(=O)NS(=O)(=O)C1CC1)CNC(=O)c1ccc(Nc2nc(NC3(c4ccc(Cl)cc4)CC3)nc(OCC(F)(F)F)n2)cc1 [Compound 3032]		0.01 to 10	
COC(=O)[C@H](CNC(=O)C(=O)Nc1ccc(C)nc1)NC(=O)c1ccc(Nc2nc(NC3(c4ccc(Cl)cc4)CC3)nc(OCC(F)(F)F)n2)cc1 [Compound 3711]			EC50 [3]: 0.01 to 10 nM
COC(=O)[C@H](CCNC(=O)C(=O)Nc1ccc(-c2nc(OC)cc(OC)n2)cc1)NC(=O)c1ccc(Nc2nc(NC3(c4ccc(Cl)cc4)CC3)nc(OCC(F)(F)F)n2)cc1 [Compound 3302]		0.01 to 10	
Cn1ccnc1NC(=O)C(=O)NC[C@H](NC(=O)c1ccc(Nc2nc(NC3(c4ccc(Cl)cc4)CC3)nc(OCC(F)(F)F)n2)cc1)C(=O)O [Compound 1352]	0.01 to 10		
Cc1ccc(NC(=O)C(=O)NCC(C)(C)CNC(=O)c2ccc(Nc3nc(NC4(c5ccc(Cl)cc5)CC4)nc(OCC(F)(F)F)n3)cc2)c(C)n1 [Compound 3073]		0.01 to 10	
